Source: patent publication US11866431B2, “Bicyclic compounds” (Vivace Therapeutics, Inc., priority 2018, dated 2024)
pIC50: −log10 of the molar value. Read-outs that look alike come from different tables or passages of the source.

System: 8XTBD luciferase reporter (YAP reporter) in HEK293T cells
Assay: YAP Reporter Assay
Type: cell-based
Settings: Homo sapiens, HEK-293T; for pIC50: HEK293T cells stably transfected with 8XTBD luciferase reporter and pRLTK, 24-hr incubation, top concentration 3 μM, read-out: Firefly Luciferase IC50; for IC50: 24 h, read-out: Firefly Luciferase IC50 (μM)
Procedure, shortened: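 HEK293T cells stably carrying 8XTBD firefly luciferase and TK-renilla (3×10^3 cells/well) dosed 3-4 h after plating with compounds from 3 μM final, 1:3 dilution, 10 points, quadruplicates. After 24 h at 37° C, Dual-Glo readings gave IC50 and maximum inhibition reported separately for firefly and renilla.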

SMILES	pIC50	IC50
C[C@H](NC(=O)c1ccc2c(-c3ccc(C(F)(F)F)cc3)cccc2c1)c1ncc[nH]1 [Compound 243, (S)—N-(1-(1H-imidazol-2-yl)ethyl)-5-(4-(trifluoromethyl)phenyl)-2-naphthamide]	6.00 to 7.00	–
CC(=O)N1CC([C@@H](C)NC(=O)c2ccc3c(-c4ccc(C(F)(F)F)cc4)cccc3c2)C1 [Compound 199, (R)—N-(1-(1-acetylazetidin-3-yl)ethyl)-5-(4-(trifluoromethyl)phenyl)-2-naphthamide]	6.00 to 7.00	–
C[C@H](NC(=O)c1ccc2c(-c3ccc(C(F)(F)F)cc3)cccc2c1)c1ccccn1 [Compound 90, (S)—N-(1-(pyridin-2-yl)ethyl)-5-(4-(trifluoromethyl)phenyl)-2-naphthamide]	> 7.00	–
C[C@@H](NC(=O)c1ccc2c(-c3ccc(C(F)(F)F)cc3)cccc2c1)c1cccc2ccsc12 [Compound 176, N-[(1R)-1-(benzothiophen-7-yl)ethyl]-5-[4-(trifluoromethyl)phenyl]naphthalene-2-carboxamide]	6.00 to 7.00	–
CNCCCNC(=O)c1ccc2c(-c3ccc(C(F)(F)F)cc3)cccc2c1 [Compound 126, N-(3-(methylamino)propyl)-5-(4-(trifluoromethyl)phenyl)-2-naphthamide]	6.00 to 7.00	–
CC(C)(C)NC(=O)c1ccc2c(-c3ccc(C(F)(F)F)cc3)cccc2c1 [Compound 264, N-(tert-butyl)-5-(4-(trifluoromethyl)phenyl)-2-naphthamide]	6.00 to 7.00	–
CC(C)NC(=O)c1ccc2c(-c3ccc(C(F)(F)F)cc3)ccc(C(F)(F)F)c2c1 [Compound 87, N-isopropyl-8-(trifluoromethyl)-5-(4-(trifluoromethyl)phenyl)-2-naphthamide]	6.00 to 7.00	–
CCOc1cc(-c2ccc(C(F)(F)F)cc2)c2ncc(C(=O)NS(C)(=O)=O)cc2c1 [Compound 81, 6-ethoxy-N-(methylsulfonyl)-8-(4-(trifluoromethyl)phenyl)quinoline-3-carboxamide]	6.00 to 7.00	–
CC(C)NC(=O)c1ccc2c(-c3ccc(C(F)(F)F)cc3)cc3sc(N)nc3c2c1 [Compound 63, 2-amino-N-isopropyl-5-(4-(trifluoromethyl)phenyl)naphtho[1,2-d]thiazole-8-carboxamide]	–	< 0.1 µM
O=C(O)/C=C/CCNC(=O)c1ccc2c(-c3ccc(C(F)(F)F)cc3)cccc2c1 [Compound 209, (E)-5-[[5-[4-(trifluoromethyl)phenyl]naphthalene-2-carbonyl]amino]pent-2-enoic Acid]	5.52 to 6.00	–
N#C/C=C\CCCNC(=O)c1ccc2c(-c3ccc(C(F)(F)F)cc3)cccc2c1 [Compound 228, N—[(Z)-5-cyanopent-4-enyl]-5-[4-(trifluoromethyl)phenyl]naphthalene-2-carboxamide]	> 7.00	–
C[C@@H](NC(=O)c1ccc2c(-c3ccc(C(F)(F)F)cc3)cccc2c1)c1nnnn1C [Compound 281, (R)—N-(1-(1-methyl-1H-tetrazol-5-yl)ethyl)-5-(4-(trifluoromethyl)phenyl)-2-naphthamide]	6.00 to 7.00	–
O=C(NC1(c2ccccn2)CC1)c1ccc2c(-c3ccc(C(F)(F)F)cc3)cccc2c1 [Compound 250, N-(1-(pyridin-2-yl)cyclopropyl)-5-(4-(trifluoromethyl)phenyl)-2-naphthamide]	6.00 to 7.00	–
C[C@@H](NC(=O)c1ccc2c(-c3ccc(C(F)(F)F)cc3)cccc2c1)C1CCC1 [Compound 252, (R)—N-(1-cyclobutylethyl)-5-(4-(trifluoromethyl)phenyl)-2-naphthamide]	6.00 to 7.00	–
CNCCNC(=O)c1ccc2c(-c3ccc(C(F)(F)F)cc3)cccc2c1 [Compound 124, N-(2-(methylamino)ethyl)-5-(4-(trifluoromethyl)phenyl)-2-naphthamide]	6.00 to 7.00	–
CC#C[C@@H](C)NC(=O)c1ccc2c(-c3ccc(C(F)(F)F)cc3)cccc2c1 [Compound 273, (R)—N-(pent-3-yn-2-yl)-5-(4-(trifluoromethyl)phenyl)-2-naphthamide]	> 7.00	–
O=C(N[C@H](CO)C1CNC1)c1ccc2c(-c3ccc(C(F)(F)F)cc3)cccc2c1 [Compound 130, N-[(1S)-1-(azetidin-3-yl)-2-hydroxy-ethyl]-5-[4-(trifluoromethyl)phenyl]naphthalene-2-carboxamide]	5.52 to 6.00	–
C[C@H](NC(=O)c1ccc2c(-c3ccc(C(F)(F)F)cc3)cccc2c1)C1CNC1 [Compound 204, (S)—N-(1-(azetidin-3-yl)ethyl)-5-(4-(trifluoromethyl)phenyl)-2-naphthamide]	6.00 to 7.00	–
C#CCCNC(=O)c1ccc2c(-c3ccc(C(F)(F)F)cc3)cccc2c1 [Compound 112, N-(but-3-yn-1-yl)-5-(4-(trifluoromethyl)phenyl)-2-naphthamide]	> 7.00	–
C#C[C@H](C)NC(=O)c1ccc2c(-c3ccc(C(F)(F)F)cc3)cccc2c1 [Compound 274, (S)—N-(but-3-yn-2-yl)-5-(4-(trifluoromethyl)phenyl)-2-naphthamide]	> 7.00	–
O=C(NCC(F)(F)F)c1ccc2c(-c3ccc(C(F)(F)F)cc3)cccc2c1 [Compound 54, N-(2,2,2-trifluoroethyl)-5-(4-(trifluoromethyl)phenyl)-2-naphthamide]	–	< 0.1 µM
CN(C#N)CCCNC(=O)c1ccc2c(-c3ccc(C(F)(F)F)cc3)cccc2c1 [Compound 127, N-(3-(N-methylcyanamido)propyl)-5-(4-(trifluoromethyl)phenyl)-2-naphthamide]	6.00 to 7.00	–
N#C/C=C/CCCNC(=O)c1ccc2c(-c3ccc(C(F)(F)F)cc3)cccc2c1 [Compound 227, N-[(E)-5-cyanopent-4-enyl]-5-[4-(trifluoromethyl)phenyl]naphthalene-2-carboxamide]	> 7.00	–
C[C@@H](NC(=O)c1cnc2c(-c3ccc(C(F)(F)F)cc3)cccc2c1)C1CN(CC(F)F)C1 [Compound 317, (R)—N-(1-(1-(2,2-difluoroethyl)azetidin-3-yl)ethyl)-8-(4-(trifluoromethyl)phenyl)quinoline-3-carboxamide]	6.00 to 7.00	–
O=C(N[C@@H](CO)c1ccccn1)c1ccc2c(-c3ccc(C(F)(F)F)cc3)cccc2c1 [Compound 163, N-[(1R)-2-hydroxy-1-(2-pyridyl)ethyl]-5-[4-(trifluoromethyl)phenyl]naphthalene-2-carboxamide]	> 7.00	–
COC[C@@H](C)NC(=O)c1ccc2c(-c3ccc(C(F)(F)F)cc3)cc(OC)cc2c1 [Compound 295, (R)-7-Methoxy-N-(1-methoxypropan-2-yl)-5-(4-(trifluoromethyl)phenyl)-2-naphthamide]	> 7.00	–
CSc1ccc(-c2ccc(C(F)(F)F)cc2)c2ccc(C(=O)NC(C)C)cc12 [Compound 18, N-isopropyl-8-methylsulfanyl-5-[4-(trifluoromethyl)phenyl]naphthalene-2-carboxamide]	> 7.00	–
[N-]=[N+]=NCCCNC(=O)c1ccc2c(-c3ccc(C(F)(F)F)cc3)cccc2c1 [Compound 256, N-(3-azidopropyl)-5-(4-(trifluoromethyl)phenyl)-2-naphthamide]	6.00 to 7.00	–
C[C@H](NC(=O)c1ccc2c(-c3ccc(C(F)(F)F)cc3)cccc2c1)c1nnnn1C [Compound 280, (S)—N-(1-(1-methyl-1H-tetrazol-5-yl)ethyl)-5-(4-(trifluoromethyl)phenyl)-2-naphthamide]	5.52 to 6.00	–
